Where “and” joins values, the source holds several entries; their conditions need not be identical. Equal entries are not always repeated.
Conditions: Gas, Frequency=0.005 MHz, Spherical cavity resonance method

CC [ethane]
Conditions	speed of sound
280.01 K, 500.43 kPa	294.64 m/s and 294.65 m/s and 294.64 m/s
280.02 K, 500.43 kPa	294.65 m/s and 294.65 m/s
280.02 K, 500.44 kPa	294.65 m/s
319.55 K, 463.5 kPa	316.22 m/s
319.55 K, 463.51 kPa	316.22 m/s
319.95 K, 464.08 kPa	316.4 m/s
319.95 K, 464.09 kPa	316.4 m/s
324.99 K, 479.74 kPa	318.64 m/s
324.99 K, 479.75 kPa	318.65 m/s
325 K, 479.75 kPa	318.65 m/s and 318.65 m/s
325 K, 479.76 kPa	318.65 m/s
339.37 K, 492.93 kPa	325.4 m/s
339.89 K, 493.66 kPa	325.64 m/s
359.27 K, 522.1 kPa	334.3 m/s
359.27 K, 522.11 kPa	334.3 m/s
359.85 K, 523.03 kPa	334.57 m/s and 334.57 m/s
365 K, 479.42 kPa	337.34 m/s and 337.34 m/s
365.01 K, 479.42 kPa	337.35 m/s and 337.35 m/s
365.01 K, 479.43 kPa	337.34 m/s and 337.35 m/s
379.19 K, 551.11 kPa	342.95 m/s
379.76 K, 551.9 kPa	343.19 m/s
379.77 K, 551.9 kPa	343.19 m/s
399.22 K, 579.97 kPa	351.41 m/s
399.8 K, 580.93 kPa	351.69 m/s and 351.69 m/s
404.98 K, 531.39 kPa	354.23 m/s
404.98 K, 531.4 kPa	354.23 m/s
404.98 K, 531.41 kPa	354.22 m/s
419.45 K, 608.87 kPa	359.75 m/s
419.46 K, 608.88 kPa	359.76 m/s
419.91 K, 609.51 kPa	359.94 m/s
419.92 K, 609.52 kPa	359.95 m/s
444.98 K, 496.44 kPa	370.72 m/s
444.98 K, 496.45 kPa	370.72 m/s and 370.72 m/s and 370.72 m/s
444.99 K, 496.45 kPa	370.72 m/s
484.95 K, 497.52 kPa	386.13 m/s
484.95 K, 497.53 kPa	386.13 m/s
484.95 K, 497.54 kPa	386.13 m/s
484.95 K, 497.55 kPa	386.14 m/s
484.95 K, 497.56 kPa	386.14 m/s
484.96 K, 497.55 kPa	386.14 m/s and 386.14 m/s
484.96 K, 539.51 kPa	386 m/s
484.96 K, 539.52 kPa	386 m/s and 386 m/s

COC(F)(F)C(F)(F)C(F)(F)F [heptafluoropropyl methyl ether]
Conditions	speed of sound
324.96 K, 164.7 kPa	110.67 m/s
324.97 K, 64.71 kPa	115.86 m/s and 115.86 m/s
324.97 K, 95.55 kPa	114.33 m/s
324.97 K, 95.56 kPa	114.33 m/s
324.97 K, 95.57 kPa	114.33 m/s
324.97 K, 95.59 kPa	114.33 m/s
324.97 K, 133.44 kPa	112.39 m/s
324.97 K, 133.45 kPa	112.39 m/s
324.97 K, 164.69 kPa	110.67 m/s
324.97 K, 164.72 kPa	110.67 m/s
349.97 K, 63.93 kPa	120.9 m/s
349.97 K, 63.94 kPa	120.9 m/s
349.97 K, 154.62 kPa	117.37 m/s
349.97 K, 154.64 kPa	117.37 m/s
349.97 K, 235.72 kPa	113.96 m/s
349.97 K, 235.74 kPa	113.96 m/s
349.97 K, 235.77 kPa	113.96 m/s
349.97 K, 317.58 kPa	110.17 m/s
349.97 K, 317.59 kPa	110.17 m/s
349.97 K, 317.63 kPa	110.17 m/s
374.95 K, 63.1 kPa	125.6 m/s and 125.6 m/s
374.95 K, 63.11 kPa	125.6 m/s
374.95 K, 160.58 kPa	122.61 m/s
374.95 K, 160.6 kPa	122.61 m/s
374.95 K, 285.28 kPa	118.5 m/s
374.95 K, 285.32 kPa	118.5 m/s
374.95 K, 285.36 kPa	118.5 m/s
374.95 K, 400.83 kPa	114.37 m/s
374.95 K, 400.86 kPa	114.37 m/s
374.95 K, 400.9 kPa	114.36 m/s
374.95 K, 510.48 kPa	110.03 m/s
374.95 K, 510.5 kPa	110.03 m/s
374.95 K, 632.78 kPa	104.58 m/s
374.95 K, 632.8 kPa	104.58 m/s
374.95 K, 632.82 kPa	104.58 m/s
374.96 K, 63.11 kPa	125.6 m/s
374.96 K, 160.58 kPa	122.61 m/s
399.99 K, 67.78 kPa	129.91 m/s
399.99 K, 197.55 kPa	126.68 m/s
399.99 K, 349.57 kPa	122.65 m/s
399.99 K, 650.2 kPa	113.69 m/s
399.99 K, 650.23 kPa	113.69 m/s
399.99 K, 806.55 kPa	108.28 m/s
399.99 K, 953.71 kPa	102.52 m/s
399.99 K, 953.73 kPa	102.52 m/s
399.99 K, 1130.3 kPa	94.29 m/s
400 K, 67.78 kPa	129.91 m/s
400 K, 197.63 kPa	126.68 m/s
400 K, 197.66 kPa	126.68 m/s
400 K, 349.52 kPa	122.65 m/s
400 K, 349.53 kPa	122.65 m/s
400 K, 502.98 kPa	118.27 m/s
400 K, 503.01 kPa	118.27 m/s
400 K, 503.03 kPa	118.27 m/s
400 K, 805.95 kPa	108.3 m/s
400 K, 805.97 kPa	108.3 m/s
400 K, 805.99 kPa	108.3 m/s
400 K, 806.53 kPa	108.28 m/s
400 K, 806.58 kPa	108.28 m/s
400 K, 953.71 kPa	102.52 m/s
400 K, 1130.2 kPa	94.3 m/s
424.94 K, 60.05 kPa	134.29 m/s
424.94 K, 60.06 kPa	134.29 m/s
424.94 K, 200.53 kPa	131.44 m/s
424.94 K, 200.58 kPa	131.44 m/s
424.94 K, 407.75 kPa	127 m/s
424.94 K, 407.78 kPa	127 m/s
424.94 K, 407.79 kPa	127 m/s
424.94 K, 407.83 kPa	127 m/s
424.94 K, 603.76 kPa	122.51 m/s
424.94 K, 603.77 kPa	122.51 m/s
424.94 K, 603.81 kPa	122.51 m/s
424.94 K, 802.02 kPa	117.61 m/s
424.94 K, 802.08 kPa	117.6 m/s
424.94 K, 802.15 kPa	117.6 m/s
424.94 K, 1005.8 kPa	112.1 m/s
424.94 K, 1006 kPa	112.1 m/s
424.94 K, 1006.1 kPa	112.09 m/s
424.94 K, 1202.6 kPa	106.2 m/s and 106.21 m/s
424.94 K, 1202.7 kPa	106.2 m/s
424.94 K, 1393 kPa	99.76 m/s
424.94 K, 1393.1 kPa	99.76 m/s
424.94 K, 1393.2 kPa	99.75 m/s
424.94 K, 1607.6 kPa	91.22 m/s
424.94 K, 1607.7 kPa	91.21 m/s
424.94 K, 1608.4 kPa	91.18 m/s
424.94 K, 1608.5 kPa	91.17 m/s
424.94 K, 1608.7 kPa	91.17 m/s
449.95 K, 64.75 kPa	138.25 m/s
449.95 K, 64.76 kPa	138.25 m/s
449.95 K, 208.64 kPa	135.84 m/s
449.95 K, 208.65 kPa	135.84 m/s
449.95 K, 396.59 kPa	132.57 m/s
449.95 K, 396.63 kPa	132.57 m/s
449.95 K, 396.66 kPa	132.57 m/s
449.95 K, 606.05 kPa	128.76 m/s
449.95 K, 606.08 kPa	128.76 m/s
449.95 K, 606.12 kPa	128.76 m/s
449.95 K, 606.24 kPa	128.76 m/s
449.95 K, 606.26 kPa	128.76 m/s
449.95 K, 606.27 kPa	128.76 m/s
449.95 K, 809.63 kPa	124.87 m/s
449.95 K, 809.64 kPa	124.87 m/s
449.95 K, 1001.1 kPa	121.03 m/s and 121.04 m/s
449.95 K, 1209.6 kPa	116.6 m/s
449.95 K, 1209.7 kPa	116.6 m/s
449.95 K, 1413.8 kPa	111.99 m/s
449.95 K, 1623.9 kPa	106.9 m/s
449.96 K, 1001.1 kPa	121.04 m/s
449.96 K, 1624.3 kPa	106.89 m/s
475 K, 67.47 kPa	142.11 m/s
475 K, 67.48 kPa	142.11 m/s
475 K, 67.49 kPa	142.12 m/s
475 K, 67.62 kPa	142.11 m/s
475 K, 67.64 kPa	142.11 m/s
475 K, 189.2 kPa	140.43 m/s
475 K, 189.28 kPa	140.42 m/s
475 K, 395.98 kPa	137.47 m/s
475 K, 395.99 kPa	137.47 m/s
475 K, 396.05 kPa	137.47 m/s
475 K, 396.11 kPa	137.47 m/s
475 K, 396.13 kPa	137.47 m/s
475 K, 396.16 kPa	137.47 m/s
475.01 K, 396.09 kPa	137.47 m/s
475.01 K, 396.11 kPa	137.47 m/s
475.01 K, 587.06 kPa	134.67 m/s
475.01 K, 795.76 kPa	131.5 m/s
475.01 K, 1005.5 kPa	128.23 m/s
475.01 K, 1197.2 kPa	125.14 m/s
475.01 K, 1402 kPa	121.75 m/s
475.01 K, 1402.1 kPa	121.75 m/s
475.02 K, 795.76 kPa	131.5 m/s
475.02 K, 1005.5 kPa	128.23 m/s
475.02 K, 1197.2 kPa	125.14 m/s
475.02 K, 1402.1 kPa	121.75 m/s
475.02 K, 1583.1 kPa	118.65 m/s
475.02 K, 1583.2 kPa	118.65 m/s
500.01 K, 62.05 kPa	145.96 m/s
500.01 K, 62.06 kPa	145.96 m/s
500.01 K, 62.27 kPa	145.95 m/s
500.01 K, 192.99 kPa	144.43 m/s
500.01 K, 193.25 kPa	144.42 m/s
500.01 K, 193.35 kPa	144.42 m/s
500.01 K, 400.4 kPa	141.96 m/s
500.01 K, 400.43 kPa	141.96 m/s
500.01 K, 400.48 kPa	141.96 m/s
500.01 K, 400.64 kPa	141.97 m/s
500.01 K, 400.67 kPa	141.97 m/s
500.01 K, 605.81 kPa	139.49 m/s
500.01 K, 804.2 kPa	137.05 m/s
500.02 K, 400.69 kPa	141.97 m/s
500.02 K, 605.7 kPa	139.49 m/s
500.02 K, 804.24 kPa	137.05 m/s
500.02 K, 804.31 kPa	137.05 m/s
500.02 K, 1002.8 kPa	134.57 m/s
500.02 K, 1206.9 kPa	131.99 m/s and 131.98 m/s
500.02 K, 1207 kPa	131.98 m/s
500.02 K, 1400.6 kPa	129.51 m/s and 129.5 m/s
500.02 K, 1400.7 kPa	129.5 m/s
500.02 K, 1593.1 kPa	127 m/s
500.03 K, 1593.1 kPa	127.01 m/s and 127 m/s
